Among the data in paper PMC8162405 are ring closure, isolated yield values, retold here.

The nature of this data set: Double amide coupling of bis-quinoline diacid with diamine (bis-indole diamine 5, or 1,5-pentanediamine for the precursor of 17); TCFH (4 equiv), N-methylimidazole (8 equiv); diamine (ca. 1.1-1.2 equiv, 6 mM in DMF) added at 20 uL/min to the activated diacid; intermolecular amide first, then intramolecular amide closure. As to conditions: the molecule shown is the open-chain precursor, 2.0 mM.

Regarding `Nc1ccc2[nH]cc(Cc3c[nH]c4ccc(NC(=O)c5cnc6cc(NC(=O)CCCCC(=O)Nc7ccc8cc(C(=O)O)cnc8c7)ccc6c5)cc34)c2c1` [13b2 (from 12b2 + 5)], under “33-membered ring”, the ring closure, isolated yield is 21%.

Turning to `Nc1ccc2[nH]cc(Cc3c[nH]c4ccc(NC(=O)c5cnc6cc(NC(=O)CCCCCCCC(=O)Nc7ccc8cc(C(=O)O)cnc8c7)ccc6c5)cc34)c2c1` [13b5 (from 12b5 + 5)], for the setting “36-membered ring”, the ring closure, isolated yield stood at 23%.

Consider `CC(C)(C)OC(=O)N(CCC(=O)Nc1ccc2cc(C(=O)O)cnc2c1)CCC(=O)Nc1ccc2cc(C(=O)Nc3ccc4[nH]cc(Cc5c[nH]c6ccc(N)cc56)c4c3)cnc2c1` [13b1 (from 12b1 + 5)], for which the ring closure, isolated yield (34-membered ring) amounted to 21%.

With `CC(C)(C)OC(=O)N(CC(=O)Nc1ccc2ncc(C(=O)O)cc2c1)CC(=O)Nc1ccc2ncc(C(=O)Nc3ccc4[nH]cc(Cc5c[nH]c6ccc(N)cc56)c4c3)cc2c1` [13a1 (from 12a1 + 5)], the ring closure, isolated yield (30-membered ring) was found to be 23%.

`NCCCCCNC(=O)c1cnc2ccc(NC(=O)CCCCC(=O)Nc3ccc4ncc(C(=O)O)cc4c3)cc2c1` [precursor of 17 (from 12a2 + 1,5-pentanediamine)]: the ring closure, isolated yield (27-membered ring) came out at 15%.

For the compound `Nc1ccc2[nH]cc(Cc3c[nH]c4ccc(NC(=O)c5cnc6ccc(NC(=O)CCCCC(=O)Nc7ccc8ncc(C(=O)O)cc8c7)cc6c5)cc34)c2c1` [13a2 (from 12a2 + 5)], the ring closure, isolated yield (31-membered ring) came to 21%.

Regarding `Nc1ccc2[nH]cc(Cc3c[nH]c4ccc(NC(=O)c5cnc6ccc(NC(=O)CCCCCC(=O)Nc7ccc8ncc(C(=O)O)cc8c7)cc6c5)cc34)c2c1` [13a3 (from 12a3 + 5)], for the setting “32-membered ring”, the ring closure, isolated yield amounted to 20%.

Regarding `Nc1ccc2[nH]cc(Cc3c[nH]c4ccc(NC(=O)c5cnc6cc(NC(=O)CCCCCC(=O)Nc7ccc8cc(C(=O)O)cnc8c7)ccc6c5)cc34)c2c1` [13b3 (from 12b3 + 5)], for the setting “34-membered ring”, the ring closure, isolated yield came to 20%.

On to `Nc1ccc2[nH]cc(Cc3c[nH]c4ccc(NC(=O)c5cnc6ccc(NC(=O)CCCCCCC(=O)Nc7ccc8ncc(C(=O)O)cc8c7)cc6c5)cc34)c2c1` [13a4 (from 12a4 + 5)], for which the ring closure, isolated yield (33-membered ring) was 21%.

As for `Nc1ccc2[nH]cc(Cc3c[nH]c4ccc(NC(=O)c5cnc6cc(NC(=O)CCCCCCC(=O)Nc7ccc8cc(C(=O)O)cnc8c7)ccc6c5)cc34)c2c1` [13b4 (from 12b4 + 5)], the ring closure, isolated yield (35-membered ring) stood at 27%.
